Key:
[1] = In vitro metabolic stability in human liver microsome; type: in vitro ADME; conditions: human liver microsomes
Description: (§1) 1900 mg MgCl2 was dissolved into a final volume of 400 mL ultra-pure water.
(§2) 17.42 g K2HPO4 and 13.65 g KH2PO4 were dissolved into a final volume of 1000 mL ultra-pure water, respectively. K2HPO4 and KH2PO4 were mixed to prepare 100 mM potassium phosphate (PBS) buffer. The pH value of the final solution was adjusted to pH 7.30±0.10.
(§3) Cold ACN (including 10 ng/mL Labetalol and 10 ng/mL Glibenclamid) was stored at 4° C.
(§4) Working Solution Preparation:
(§5) Verapamil (positive control) and test compound stock solution were diluted into a concentration of 50 μM and 200 μM respectively, using MeOH/ACN/H2O solution (1:1:2, v/v/v).
(§6) 1) 40 μL MgCl2 and 306 μL PBS were added to 96 plate wells (blank, compound wells, compounds without NADPH wells)
(§7) 2) 4 μL compound working solution was added to above wells (blank: 4 μL PBS buffer) (Note: the volume of DMSO in final incubation system ≤0.5%)
(§8) 3) 10 μL microsomes (20 mg/mL) was added in each well. The mixture was warmed up for 10 minutes at 37.0° C.
(§9) 4) 40 μL 10 mM NADPH working solution was added to start reaction. The total volume was 400 μL.
(§10) 5) Aliquots of 50 μL samples were taken from the reaction solution at 0, 5, 15, 45 min. The reaction solutions were stopped by the addition of 400 μL stop solution.
(§11) 6) The sampling plates were shaked for approx. 5 min.
(§12) 7) Samples were centrifuged at 3200 rcf for 10 min. then transferred 50 μL to a new plate dilute with 200 μL H2O for LC/MS/MS analysis.
(§13) Use equation of first order kinetics to calculate t1/2 and CL: […]
(§14) Where k represents elimination constant, which is calculated from a log linear plot of % Remaining versus time. t1/2 represents the half-life. Cprotein is the concentration of liver microsomes.

SHP2 = target: T1, SHP2 (Homo sapiens, UniProt Q06124); assay: SHP2 allosteric inhibitor enzyme activity assay (DiFMUP fluorescence); type: biochemical
T1 sequence (Q06124 1-593): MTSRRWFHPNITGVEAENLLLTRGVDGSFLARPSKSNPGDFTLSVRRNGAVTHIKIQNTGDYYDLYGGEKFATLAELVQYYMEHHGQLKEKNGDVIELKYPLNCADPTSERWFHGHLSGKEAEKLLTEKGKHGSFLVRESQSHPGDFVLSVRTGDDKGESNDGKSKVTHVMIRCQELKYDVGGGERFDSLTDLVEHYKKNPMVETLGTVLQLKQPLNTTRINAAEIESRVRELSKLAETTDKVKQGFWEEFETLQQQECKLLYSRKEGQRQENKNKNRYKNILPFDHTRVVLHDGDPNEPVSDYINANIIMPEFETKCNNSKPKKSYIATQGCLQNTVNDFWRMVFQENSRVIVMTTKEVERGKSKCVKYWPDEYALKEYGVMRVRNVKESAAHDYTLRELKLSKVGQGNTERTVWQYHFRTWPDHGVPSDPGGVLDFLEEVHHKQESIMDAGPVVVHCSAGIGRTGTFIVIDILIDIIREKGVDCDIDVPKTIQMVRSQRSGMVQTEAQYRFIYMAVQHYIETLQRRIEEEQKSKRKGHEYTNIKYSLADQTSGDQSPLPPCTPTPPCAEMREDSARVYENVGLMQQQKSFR
Procedure, shortened: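 SHP2 activated by 0.5 μM IRS1_pY1172(dPEG8)pY1222 peptide, 0.2 ng enzyme per well, 1 h at room temperature with compound (1 μM top, 3-fold series), then DiFMUP substrate 1 h. Buffer: 60 mM HEPES, 75 mM NaCl, 75 mM KCl, 0.05% BRIJ-35, 1 mM EDTA, 5 mM DTT. Fluorescence ex 340/em 450 nm; IC50 by variable-slope fit.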

[2] = In vitro metabolic stability in rat liver microsome; type: in vitro ADME; conditions: rat liver microsomes
Description: as §1, §2, §3, §4, §5, §6, §7, §8, §9, §10, §11, §12, §13, §14

hERG channel = target: T2, hERG channel (Homo sapiens, UniProt Q12809); assay: Patch clamp assay to test the effect of compound on hERG channel; type: cell-based; conditions: manual patch clamp, HEK 293 cells expressed with hERG, concentration for half maximum effect
T2 construct: expressed in transfected cells; host or cells: HEK-293
T2 sequence (Q12809 whole entry): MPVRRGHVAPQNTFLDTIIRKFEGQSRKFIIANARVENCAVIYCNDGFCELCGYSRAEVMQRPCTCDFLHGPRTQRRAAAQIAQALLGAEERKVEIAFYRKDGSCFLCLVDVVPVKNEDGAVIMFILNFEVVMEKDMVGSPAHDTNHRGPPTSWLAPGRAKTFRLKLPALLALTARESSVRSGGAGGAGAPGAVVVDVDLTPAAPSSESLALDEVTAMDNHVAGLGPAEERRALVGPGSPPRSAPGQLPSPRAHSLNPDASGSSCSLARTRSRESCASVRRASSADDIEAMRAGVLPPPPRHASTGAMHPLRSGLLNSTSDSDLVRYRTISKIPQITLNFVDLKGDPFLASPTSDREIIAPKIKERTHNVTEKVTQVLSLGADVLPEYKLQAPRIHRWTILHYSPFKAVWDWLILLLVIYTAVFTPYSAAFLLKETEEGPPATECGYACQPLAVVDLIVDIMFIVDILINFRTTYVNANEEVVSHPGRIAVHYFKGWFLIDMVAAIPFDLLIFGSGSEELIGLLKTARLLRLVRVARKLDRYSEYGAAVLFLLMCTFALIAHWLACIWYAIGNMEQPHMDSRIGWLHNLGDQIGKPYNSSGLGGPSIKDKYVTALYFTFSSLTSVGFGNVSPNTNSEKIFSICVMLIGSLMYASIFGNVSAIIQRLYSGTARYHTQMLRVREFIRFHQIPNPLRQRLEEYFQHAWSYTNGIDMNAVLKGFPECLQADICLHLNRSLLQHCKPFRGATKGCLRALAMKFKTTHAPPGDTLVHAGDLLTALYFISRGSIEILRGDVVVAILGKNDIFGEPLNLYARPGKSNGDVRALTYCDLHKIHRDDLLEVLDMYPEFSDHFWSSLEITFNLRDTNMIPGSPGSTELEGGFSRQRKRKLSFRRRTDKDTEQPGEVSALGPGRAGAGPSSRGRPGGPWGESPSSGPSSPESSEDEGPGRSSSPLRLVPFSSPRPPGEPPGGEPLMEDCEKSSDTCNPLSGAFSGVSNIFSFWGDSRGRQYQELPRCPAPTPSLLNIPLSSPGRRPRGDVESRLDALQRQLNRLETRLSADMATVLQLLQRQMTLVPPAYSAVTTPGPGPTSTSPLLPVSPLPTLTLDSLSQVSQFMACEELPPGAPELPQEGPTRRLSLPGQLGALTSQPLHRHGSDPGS
Description: 10 mL extracellular solution was used to dilute the stock solution, making the final concentrations of test compound were 0.3 μM, 1 μM, 3 μM, 10 μM and 30 μM.
The solubility of compound was visually observed.
The cell line was derived from HEK-293 cells, and grown in a humidified environment at 37° C. under 5% CO2, using the media formulation below. The cell line should not be allowed to exceed 80% confluence within the culture vessel to prevent contact inhibition causing senescence and should thus be passaged every 3/4 days using a seeding density of 2*10^6 cells per T175 flask. Cell lines were be pre-washed with phosphate buffered saline before harvesting with Trypsin/EDTA and seeded into new flasks.
HEK 293 cells expressed with hERG were plated on cover slips overnight with the cell density less than 50% of confluence. Cells used for electrophysiological study were transferred to a small cell bath (1 mL) mounted on the stage of an inverted microscope (Diaphot, Nikon) and were perfused with external solution containing (in mM) 130 NaCl, 4 KCl, 1.8 CaCl2), 1 MgCl2, 10 glucose and 10 HEPES (pH 7.4 with NaOH), the perfusion rate was 4 mL/min. The internal pipette solution contained (in mM) 130 KCl, 1 MgCl2, 5 ethylene glycol-bis(baminoethyl ether)-N,N,N8,N8-tetraacetic acid, 5 MgATP and 10 HEPES (pH 7.2 with KOH). An HEKA EPC-10 patch-clamp amplifier and PATCHMASTER acquisition program were used to record membrane currents (HEKA Instruments IncD-67466 Lambrecht/Pfalz Germany). All experiments were performed at room temperature (22-23° C.).
The Model P-97 micropipette puller (Sutter Instrument Company, One Digital Drive, Novato, Calif. 94949) was used to pull glass patch pipettes (BF150-86-10) in all experiments.
The experiments were initiated with a 2 min vehicle control period after forming a whole cell configuration with less 5% run-down in 5 min and the tail currents in the report were at least greater than 500 pA. After a 2 min vehicle control period, the perfusion was switched to the reservoir containing the compound at the first concentration. The same procedure was repeated 3-5 times so that each cell was exposed to 4-6 escalating concentrations of compound. The time courses for block and unblock of hERG during compounds exposure and washout were continuously recorded.
The peak tail of hERG was generated by applying 2-sec depolarizing every 12 sec steps from a holding potential of −80 mV, the peak of tail currents were measured at a 5-sec repolarizing pulse at −50 mV.
hERG peak tail currents were directly measured from a 5 sec repolarization pulse at −50 mV. The fraction of control current was plotted as a function of logarithm of compound concentration. To determine the concentration of compound for halfmaximum effect, the concentration-response curve was fitted by Hill equation as shown follow.
where Y is the observed value, Bottom is the lowest observed value (0), Top is the highest observed value (1), and the Hillcoefficient gives the largest absolute value of the slope of the curve.
Data were analyzed by a combination of PATCHMASTER ((HEKA Instruments IncD-67466 Lambrecht/Pfalz Germany) and Origin (OriginLab Corporation, Northampton, Mass.) software programs.
Data were expressed as mean±SEM.

leukemia MV-4-11 cell = assay: Cell proliferation assay (CellTiter-Glo), MV-4-11; type: cell-based; conditions: Homo sapiens, MV4-11; MV-4-11, 120 hrs, CTG; class symbols; read-out: Compound on MV-4-11 cell IC50
Description: (§15) The effects of the compounds on the proliferation of leukemia MV-4-11 cell and lung cancer NCI-H358 cell were evaluated by in vitro cell test. The assay used in this study was the CELL TITER-GLO (CTG) luminescence assay, which can detect the number of living cells by quantitative determination of ATP. Because ATP is involved in a variety of enzymatic reactions in vivo and is an indicator of the metabolism of living cells, its content can directly reflects the number and state of cells. During the experiment, Celltiter-Glo™ reagent was added to the cell culture medium to measure the luminescence value. The luminescence value was proportional to the amount of ATP, which in turn was positively correlated with the number of living cells. Therefore, ATP content can be used to detect cell viability.
A bottle of MV-4-11 cells in logarithmic growth phase was taken, the cells were collected, centrifuged, resuspend, counted, and then inoculated into 96-well Microplate (Corning #3917), with 4000 cells inoculated in each well. The plates were placed in an incubator at 37° C. and 5% CO2 for 24 hrs culture, and the compounds of the invention were added for conducting.
(§16) An appropriate amount of the compound of the invention was taken for cell treatment, and the final concentration of the compound from high to low was 1000 nM, 333.3 nM, 111.1 nM, 37.04 nM, 12.35 nM, 4.115 nM, 1.372 nm, 0.4572 nM, 0.1524 nM, 0 nM, respectively. The orifice plate was cultured in an incubator at 37° C. and 5% CO2. Only adding medium without adding cell hole was set as blank group. Compound concentration of 0 nM group was zero control group.
After cultured for 120 hrs, MV-4-11 cells were added with 50 μL CellTiter-Glo® Luminescent cell viability assay solution in each well, gently shaken for 2 mins, and incubated at room temperature for 10 mins. The detection values of each well were read on the multi-functional microplate reader.
(§17) The inhibition rate is calculated according to the luminous value reading,
(§18) Inhibition rate %=(1−(administration group value−blank group value)/(control group value−blank group value)*100
(§19) The log (inhibitor) vs. response variable slope of GraphPad Prism was used to fit the dose-response curve and calculate the IC50 of compounds inhibiting cell proliferation.

[3] = test system: lung cancer NCI-H358 cell; assay: Cell proliferation assay (CellTiter-Glo), NCI-H358; type: cell-based; conditions: Homo sapiens; NCI-H358, 96 hrs, CTG; class symbols; read-out: Compound on NCI-H358 cell IC50
Description: as §15
A bottle of NCI-H358 cells in logarithmic growth phase was taken, the cells were digested and resuspend, counted, and then the cell density was adjusted. After that, the cells were inoculated into a 96-well Ultra-Low Attachment Microplate (Corning #3474), 2000 cells were inoculated in each well, and the well plate was placed in an incubator at 37° C. and 5% CO2, and the compounds of the invention were added for conducting.
as §16
NCI-H358 cells were cultured for 96 hrs, then 50 μL CellTiter-Glo® Luminescent cell viability assay solution was added to each well, and the cells were gently shaken for 2 mins, and incubated at room temperature for 10 mins. The cell reaction system was transferred to 96-well Microplate (Corning #3917). The detection values of each well were read on the multi-functional microplate reader.
as §17, §18, §19

Structure (SMILES)	CLint Human [1]	IC50 (SHP2; numeric values)	CLint Rat [2]	IC50 (leukemia MV-4-11 cell)	IC50 [3]	IC50 (SHP2; class symbols)	IC50 (hERG channel)
CCOC(=O)Nc1ccc(C2(c3n[nH]c4nc(N5CCC6(CC5)Cc5ccccc5[C@H]6N)[nH]c(=O)c34)CC2)cc1 [Example 231, ethyl (S)-(4-(1-(6-(1-amino-1,3-dihydrospiro[indene-2,4′-piperidin]-1′-yl)-4-oxo-4,5-dihydro-1H-pyrazolo[3,4-d]pyrimidin-3-yl)cyclopropyl)phenyl)carbamate]	–	–	–	≤ 20 nM	20 to 60 nM	–	7500 nM
Cn1c(N2CCC3(CC2)Cc2ccccc2[C@H]3N)nc2[nH]nc(Sc3cccc(Cl)c3Cl)c2c1=O [Comparative compound 1, reference compound]	171.8 μL/min/mg proteins	–	89.9 μL/min/mg proteins	–	–	–	90 nM

Now from value to compound, other results behind:

CLint Human [1]	IC50 (SHP2; numeric values)	CLint Rat [2]	IC50 (leukemia MV-4-11 cell)	IC50 [3]	IC50 (SHP2; class symbols)	Structure (SMILES)	IC50 (hERG channel)
50.0 μL/min/mg proteins	1.1 nM	32.5 μL/min/mg proteins	–	–	–	CC(C)(c1ccccc1)c1n[nH]c2nc(N3CCC4(CC3)Cc3ccccc3[C@H]4N)[nH]c(=O)c12 [Example 216, (S)-6-(1-amino-1,3-dihydrospiro[indene-2,4′-piperidin]-1′-yl)-3-(2-phenylpropan-2-yl)-1,5-dihydro-4H-pyrazolo[3,4-d]pyrimidin-4-one]	–
182.7 μL/min/mg proteins	–	102.0 μL/min/mg proteins	–	–	–	N[C@@H]1c2ccccc2CC12CCN(c1nc3[nH]nc(C4(Cc5ccccc5)CC4)c3c(=O)[nH]1)CC2 [Example 74]	1840 nM
0.2 μL/min/mg proteins	–	3.4 μL/min/mg proteins	–	–	≤ 20 nM	N[C@@H]1c2ccccc2CC12CCN(c1nc3[nH]nc(C4(c5ccc(OC(F)(F)F)cc5)CC4)c3c(=O)[nH]1)CC2 [Example 233, (S)-6-(1-amino-1,3-dihydrospiro[indene-2,4′-piperidin]-1′-yl)-3-(1-(4-(trifluoromethoxy)phenyl)cyclo-propyl)-1,5-dihydro-4H-pyrazolo[3,4-d]pyrimidin-4-one]	–

Source: patent US20230192705A1, “SHP2 INHIBITORS, COMPOSITIONS AND USES THEREOF” (Betta Pharmaceuticals Co., Ltd, priority 2020, published 2023)
